Assays:
[1] = tested on: C. difficile strain MMX3581 (clinical); assay: Minimum Inhibitory Concentration (MIC) assay; type: cell-based, Clostridium difficile; details: Clostridioides difficile, growth 18-24 hours at 37° C.
Protocol: (§1) The MIC assays are carried out in a final volume of 100 μL in 96-well clear round-bottom plates according to methods established by the Clinical Laboratory Standards Institute (CLSI). Briefly, test compound suspended in 100% DMSO (or another suitable solubilizing buffer) is added to an aliquot of media appropriate for a given pathogen to a total volume of 50 μL. This solution is serially diluted by 2-fold into successive tubes of the same media to give a range of test compound concentrations appropriate to the assay. To each dilution of test compound in media is added 50 ? L of a bacterial suspension from an overnight culture growth in media appropriate to a given pathogen. Final bacterial inoculum is approximately 10^5-10^6 CFU/well. […] Ciprofloxacin is used as an antibiotic-positive control in each screening assay. Each of the bacterial cultures that are available from the American Type Culture Collection (ATCC, www.atcc.org) is identified by its ATCC number.

[2] = tested on: C. difficile strain ATCC 700057 (MMX 4381); assay: Minimum Inhibitory Concentration (MIC) assay; type: cell-based, Clostridium difficile; details: Clostridioides difficile, ATCC700057; C. difficile ATCC 700057 (MMX 4381); growth 18-24 hours at 37° C.
Protocol: as §1

CD3299 riboswitch = assay: In-line probing assay, binding of ligands to CD3299 riboswitch; design: species or system Clostridium difficile
Protocol: An in-line probing assay, as described in Regulski and Breaker, “In-line probing analysis of riboswitches”, (2008), Methods in Molecular Biology, Vol 419, pp 53-67, the contents of which are incorporated by reference, is used to estimate the dissociation binding constants for the interaction of each of the ligands described herein with a CD3299 riboswitch amplified from Clostridium difficile. Precursor mRNA leader molecules are prepared by in vitro transcription from templates generated by PCR and [5′-^32P]-labeling using methods described previously (Regulski and Breaker, In-line probing analysis of riboswitches (2008), Methods in Molecular Biology Vol 419, pp 53-67). Approximately 5 nM of labeled RNA precursor is incubated for 41 hours at 25° C. in 20 mM MgCl2, 50 mM Tris/HCl (pH 8.3 at 25° C.) in the presence or absence of a fixed concentration of each ligand. Binding to the CD3299 riboswitches are measured 100 ? M. In-line cleavage products are separated on 10% polyacrylamide gel electrophoresis (PAGE), and the resulting gel is visualized using a Molecular Dynamics Phosphorimager. […]
In-line probing exploits the natural ability of RNA to self-cleave at elevated pH and metal ion concentrations (pH≈8.3, 25 mM MgCl2) in a conformation-dependent manner. […] These ligand-dependent changes in RNA cleavage can be readily detected by denaturing gel electrophoresis. […]

| Structure (SMILES) | MIC [1] [µg/mL] | MIC [2] [µg/mL] | binding to the CD3299 riboswitch (in words) (CD3299 riboswitch) |
| --- | --- | --- | --- |
| Cc1cc2nc3c(=O)[nH]c(=O)nc-3n(CCNCc3ccc(Cl)cc3)c2cc1C [Compound 1] | ≤ 64 | ≤ 64 |  |
| Cc1cc2nc3c(=O)[nH]c(=O)nc-3n(C[C@H](O)[C@H](O)[C@H](O)COP(=O)(O)O)c2cc1C [FMN, Flavin mononucleotide] |  |  | does not bind |
| Cc1cc2nc3c(=O)[nH]c(=O)nc-3n(CCNCc3ccccc3)c2cc1C [Compound 2] | ≤ 64 | ≤ 64 |  |

Source: patent US20130129695A1, “METHODS FOR TREATING OR INHIBITING INFECTION BY CLOSTRIDIUM DIFFICILE” (priority 2010, published 2013)
